Counter-ions that a name gives are not always drawn.
Columns and labels:
[1] = test system: P. falciparum Pf3D7^0087/N9; test: In vivo SCID mouse model, oral therapeutic efficacy; parameters: species or system Plasmodium falciparum; conditions: for % control: day 7; for Activity: day 7 vs untreated control
Protocol: Compound efficacy was assessed against the Plasmodium falciparum strain Pf3D7^0087/N9 in vivo. Mice are infected intravenously with parasitized red blood cells on day 0. Experimental mice are generally treated at day 3, 4, 5, and 6 post-infection with an oral dose of the compound (single or 4-day oral dosing regimen) and are compared to an infected control group for reduction in parasitemia on day 7 (Maria Belen Jimenez-Díaz, Teresa Mulet, Sara Viera, Vanessa Gomez, Helen Garuti, Javier Ibanez, Angela Alvarez-Doval, Leonard D. Shultz, Antonio Martínez, Domingo Gargallo-Viola, and Inigo Angulo-Barturen, Improved Murine Model of Malaria Using Plasmodium falciparum Competent Strains and Non-Myelodepleted NOD-scid IL2Rgammanull Mice Engrafted with Human Erythrocytes, Antimicrob Agents Chemother. 2009, 53:4533).
PYRO and M1 were solubilized in a vehicle consisting of 70% Tween-80 and 30% ethanol, followed by a 10-fold dilution in H2O.

[2] = molecular target: T1, P-gp (Homo sapiens, UniProt P08183); test: Inhibition of Pgp-mediated efflux of M1 in Caco-2 monolayer; assay type: cell-based; conditions: M1 as substrate
T1 construct: In Caco-2 monolayer cells, M1 is effluxed by P-gp transporters with a ratio of 18.2; endogenous in cells; host or cells: Caco-2 cells, differentiated monolayers on polycarbonate filter inserts

[3] = PYRO 4 × 1 MG/KG oral, SCID mice, Table 2
[4] = PYRO 4 × 3 MG/KG oral, SCID mice, Table 2
[5] = PYRO 4 × 9 MG/KG oral, SCID mice, Table 2
[6] = Table 4 entry 3: M1 0 mg/kg, PYRO 4 × 3 mg/kg, oral
[7] = Table 4 entry 3: M1 0 mg/kg, PYRO 4 × 3 mg/kg, oral, LLQ = <0.01% parasitemia
[8] = Table 4 entry 5: M1 0 mg/kg, PYRO 4 × 9 mg/kg, oral
[9] = Table 4 entry 5: M1 0 mg/kg, PYRO 4 × 9 mg/kg, oral, LLQ = <0.01% parasitemia
[10] = Table 4 entry 7: M1 0 mg/kg, PYRO 4 × 30 mg/kg, oral
[11] = Table 4 entry 7: M1 0 mg/kg, PYRO 4 × 30 mg/kg, oral, LLQ = <0.01% parasitemia

T1 sequence (P08183 whole entry): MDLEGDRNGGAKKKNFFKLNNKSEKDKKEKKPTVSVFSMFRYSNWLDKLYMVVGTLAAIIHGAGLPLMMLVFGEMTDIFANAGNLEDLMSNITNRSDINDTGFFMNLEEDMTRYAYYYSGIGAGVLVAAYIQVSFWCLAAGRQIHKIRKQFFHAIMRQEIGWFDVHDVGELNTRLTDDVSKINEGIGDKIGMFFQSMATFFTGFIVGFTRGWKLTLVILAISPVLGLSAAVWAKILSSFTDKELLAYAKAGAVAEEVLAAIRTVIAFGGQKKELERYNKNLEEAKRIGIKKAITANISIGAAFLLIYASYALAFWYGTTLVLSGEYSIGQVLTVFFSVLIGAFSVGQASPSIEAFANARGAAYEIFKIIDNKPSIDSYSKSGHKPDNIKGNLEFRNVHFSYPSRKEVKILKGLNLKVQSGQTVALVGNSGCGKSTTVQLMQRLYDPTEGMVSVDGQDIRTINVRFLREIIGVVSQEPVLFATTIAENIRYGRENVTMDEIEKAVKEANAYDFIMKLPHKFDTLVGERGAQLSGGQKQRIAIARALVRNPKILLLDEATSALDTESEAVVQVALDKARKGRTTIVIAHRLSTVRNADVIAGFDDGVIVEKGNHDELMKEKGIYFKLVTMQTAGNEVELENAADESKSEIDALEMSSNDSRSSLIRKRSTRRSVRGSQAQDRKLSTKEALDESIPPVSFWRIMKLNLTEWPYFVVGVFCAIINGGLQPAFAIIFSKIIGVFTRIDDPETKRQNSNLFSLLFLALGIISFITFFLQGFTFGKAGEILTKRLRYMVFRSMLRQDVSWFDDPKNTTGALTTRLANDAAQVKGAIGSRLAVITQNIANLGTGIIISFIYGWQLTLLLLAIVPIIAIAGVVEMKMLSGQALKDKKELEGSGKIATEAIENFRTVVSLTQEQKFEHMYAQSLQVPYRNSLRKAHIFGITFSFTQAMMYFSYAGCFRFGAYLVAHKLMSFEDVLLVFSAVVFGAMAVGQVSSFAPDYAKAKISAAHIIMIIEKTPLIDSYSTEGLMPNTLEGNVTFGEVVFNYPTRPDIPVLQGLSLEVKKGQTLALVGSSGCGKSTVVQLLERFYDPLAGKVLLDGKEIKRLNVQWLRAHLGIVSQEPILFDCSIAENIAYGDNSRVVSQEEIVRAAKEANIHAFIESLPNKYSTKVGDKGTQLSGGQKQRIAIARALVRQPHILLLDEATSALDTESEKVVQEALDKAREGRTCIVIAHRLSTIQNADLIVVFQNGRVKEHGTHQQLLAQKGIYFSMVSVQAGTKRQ

**Q.** For COc1ccc2nc3cc(Cl)ccc3c(Nc3cc(CN4CCCC4)c(O)c(CN4CCCC4)c3)c2n1 [PYRO, pyronaridine tetraphosphate salt], which “% PARASITEMIA day 3 post infection” value [1, 3] is on record?
**A.** 0.63%

**Q.** What about the “% PARASITEMIA day 4 post infection” value [1, 3] of the same molecule?
**A.** 1.21%

**Q.** What about the “% PARASITEMIA day 5 post infection” value [1, 3] of the same molecule?
**A.** 3.14%

**Q.** And the “% PARASITEMIA day 6 post infection” value [1, 3]?
**A.** 4.53%

**Q.** And the “% PARASITEMIA day 7 post infection” value [1, 3]?
**A.** 7.55%

**Q.** And the “% control” value ([1]; PYRO 4 × 1 MG/KG oral, SCID mice)?
**A.** 82.6%

**Q.** What about the Activity ([1]; PYRO 4 × 1 MG/KG oral, SCID mice, 1 mg/kg) of the same molecule?
**A.** 17.4%

**Q.** And the Activity ([1]; PYRO 4 × 1 MG/KG oral, SCID mice, listed as pyronaridine, 1 mg/kg)?
**A.** 17%

**Q.** What about the “% PARASITEMIA day 3 post infection” value [1, 4] of the same molecule?
**A.** 0.71%

**Q.** What about the “% PARASITEMIA day 4 post infection” value [1, 4] of the same molecule?
**A.** 1%

**Q.** What about the “% PARASITEMIA day 5 post infection” value [1, 4] of the same molecule?
**A.** 0.44%

**Q.** What about the “% PARASITEMIA day 6 post infection” value [1, 4] of the same molecule?
**A.** 0.25%

**Q.** And the “% PARASITEMIA day 7 post infection” value [1, 4]?
**A.** 0.04%

**Q.** What about the “% control” value ([1]; PYRO 4 × 3 MG/KG oral, SCID mice) of the same molecule?
**A.** 0.4%

**Q.** What about the Activity ([1]; PYRO 4 × 3 MG/KG oral, SCID mice, 3 mg/kg) of the same molecule?
**A.** 99.6%

**Q.** What about the Activity ([1]; PYRO 4 × 3 MG/KG oral, SCID mice, listed as pyronaridine, 3 mg/kg) of the same molecule?
**A.** 99.6%

**Q.** And the “% PARASITEMIA day 3 post infection” value [1, 5]?
**A.** 0.7%

**Q.** And the “% PARASITEMIA day 4 post infection” value [1, 5]?
**A.** 0.28%

**Q.** What about the “% PARASITEMIA day 5 post infection” value [1, 5] of the same molecule?
**A.** 0.15%

**Q.** What about the “% PARASITEMIA day 6 post infection” value [1, 5] of the same molecule?
**A.** 0.063%

**Q.** And the “% PARASITEMIA day 7 post infection” value ([1]; PYRO 4 × 9 MG/KG oral, SCID mice, Table 2, LLQ = <0.01% parasitemia, 9 mg/kg)?
**A.** <LLQ

**Q.** And the “% PARASITEMIA day 7 post infection” value ([1]; PYRO 4 × 9 MG/KG oral, SCID mice, Table 2, LLQ = <0.01% parasitemia, listed as pyronaridine, 9 mg/kg)?
**A.** parasite-free

**Q.** And the “% control” value ([1]; PYRO 4 × 9 MG/KG oral, SCID mice, LLQ = <0.01% parasitemia)?
**A.** <LLQ

**Q.** And the Activity ([1]; PYRO 4 × 9 MG/KG oral, SCID mice, 9 mg/kg)?
**A.** 100%

**Q.** And the Activity ([1]; PYRO 4 × 9 MG/KG oral, SCID mice, listed as pyronaridine, 9 mg/kg)?
**A.** > 99.9%

**Q.** What about the “% PARASITEMIA day 3 post infection” value [1, 6] of the same molecule?
**A.** 1.16%

**Q.** What about the “% PARASITEMIA day 4 post infection” value [1, 6] of the same molecule?
**A.** 0.67%

**Q.** And the “% PARASITEMIA day 5 post infection” value [1, 6]?
**A.** 0.08%

**Q.** What about the “% PARASITEMIA day 6 post infection” value [1, 6] of the same molecule?
**A.** 0.01%

**Q.** What about the “% PARASITEMIA day 7 post infection” value [1, 7] of the same molecule?
**A.** <LLQ

**Q.** What about the “% PARASITEMIA day 10 post infection” value [1, 7] of the same molecule?
**A.** <LLQ

**Q.** And the “% PARASITEMIA day 3 post infection” value [1, 8]?
**A.** 1.09%

**Q.** What about the “% PARASITEMIA day 4 post infection” value [1, 8] of the same molecule?
**A.** 0.34%

**Q.** And the “% PARASITEMIA day 5 post infection” value [1, 8]?
**A.** 0.05%

**Q.** What about the “% PARASITEMIA day 6 post infection” value [1, 9] of the same molecule?
**A.** <LLQ

**Q.** And the “% PARASITEMIA day 7 post infection” value [1, 9]?
**A.** <LLQ

**Q.** And the “% PARASITEMIA day 10 post infection” value [1, 9]?
**A.** <LLQ

**Q.** And the “% PARASITEMIA day 3 post infection” value [1, 10]?
**A.** 1.13%

**Q.** What about the “% PARASITEMIA day 4 post infection” value [1, 10] of the same molecule?
**A.** 0.14%

**Q.** What about the “% PARASITEMIA day 5 post infection” value [1, 10] of the same molecule?
**A.** 0.02%

**Q.** What about the “% PARASITEMIA day 6 post infection” value [1, 10] of the same molecule?
**A.** 0.01%

**Q.** What about the “% PARASITEMIA day 7 post infection” value [1, 11] of the same molecule?
**A.** <LLQ

**Q.** What about the “% PARASITEMIA day 10 post infection” value [1, 11] of the same molecule?
**A.** <LLQ

**Q.** And the “concentrations at which PYRO inhibited Pgp-mediated efflux of M1” value [2]?
**A.** greater than 10 μM

From US11491162B2, “Combination of quinoline-4-carboxamides and benzonaphthyridine derivatives as antimalarial drug combination” (Merck Patent GmbH, priority 2018, dated 2022)
